Values quoted from earlier work in publication PMC7984154 (Chemmedchem, 2020).

How the values were obtained:
FAP = conditions: cancer indications, also in combination with other chemotherapies
[1] = steady state, oral dose of 5 mg

Row | SMILES | efficacy in the clinical setting (FAP) | clinical maximum plasma concentration [1] | maximal plasma concentrations (single dose 600 mg) | highest tolerable dose (single rising dose studies)
1 | CC(C)[C@H](N)C(=O)N1CCC[C@H]1B(O)O [PT100, talabostat] | minimal efficacy |  |  | 
2 | CC#CCn1c(N2CCC[C@@H](N)C2)nc2c1c(=O)n(Cc1nc(C)c3ccccc3n1)c(=O)n2C [linagliptin] |  | 12 nM | ~4 µM | 600 mg
